Measured values from patent US10370410B2, “Cancer cell-targeting peptide and use thereof” (KYUNGPOOK NATIONAL UNIVERSITY INDUSTRY-ACADEMIC COOPERATION …, priority 2015, dated 2019).
Ends that are not written are not given here. FPI774 = near-infrared fluorescent reagent (label)

Key:
[1] = system: tumor of K-ras^LA2 transgenic mouse; test: Binding capability of phage clones to tumor (phage titer); type: in vivo; conditions: phage clone expressing the peptide administered into K-ras^LA2 transgenic mouse; FIG. 4B
Protocol: The phage clones that express each of the peptides were administered into the K-ras^LA2 transgenic mouse, and bound to tumor, and a titer of the phage clones was measured.

[2] = system: K-ras transgenic tumor cells; test: Phage library screening and sequence analysis of phage clones; type: in vivo, mouse; conditions: phage clones from 4th and 5th screening rounds, sequence analysis
Protocol: To screen peptides having specificity to K-ras transgenic tumor cells in the T7 CX7C phage library prepared above, a random peptide phage library (1×10^11 pfu) were injected into a K-ras^LA2 transgenic mouse via the tail vein.
After 15 minutes, the tumor was excised from the lungs of the K-ras^LA2 transgenic mouse, finely ground, and added to a DMEM medium to prepare a cell suspension, which was then passed through a70-M filter (DAKO, Carpinteria, Calif., USA). The phages bound to the tumor were reacted with 1% NP-40 for 10 minutes for separation. Afterwards, the separated phages were recovered by treatment with cultured BL21 host bacteria. The phages that were recovered by the BL21 host bacteria and amplified were injected into a K-ras^LA2 transgenic mouse via the tail vein. Such a round of the screening of phage library was repeated five times. […] At the final 5th round, the multiplicative […] of the phage clones increased 162 times the first round. Afterwards, from the 4th round and the 5th rounds, a total of 49 clones were randomly selected for the sequencing.
DNA inserts of each of the 49 phage clones collected in Example 2-2 were sequenced by an automated DNA sequencer (Genotech Inc., Daegeon and SolGent Inc. Daegu) using a 96 pill primer (New England Biolabs). To find amino acid motifs shared between the common sequences or peptides, amino acid sequences deduced based on the nucleotide sequences were was aligned by using the Clustal W program. To find proteins having significant homology, NCBI BLAST search was performed with respect to peptide sequences. As a result of the sequence analysis of the peptides, four phage clones with high affinity for the K-ras transgenic tumor cells were confirmed, and the peptide sequences thereof were as follows: CKSRKDGAC (4R-3, SEQ ID NO: 1), CMPKRPSSC (4R-16, SEQ ID NO: 2), CRGTAEG (4R-21, SEQ ID NO: 3), and CRQTKN (5R-7, SEQ ID NO: 4).

[3] = system: tumors of the K-ras^LA2 transgenic mouse; test: Near-infrared fluorescence imaging of FPI774-labeled tumor-targeting peptides; type: in vivo; conditions: FPI774-labeled peptide, tail vein, 4 hours, FIG. 5
Protocol: To validate whether the peptides prepared in <Example 2-5> in the present invention were specifically transferred to the tumor cells of the K-ras^LA2 transgenic mouse, a control peptide and a peptide labeled with FPI774 and having SEQ ID NO: 1 to SEQ ID NO: 4 were injected into the K-ras^LA2 transgenic mouse and a normal mouse via the tail vein of each mouse. After 4 hours, the mice were sacrificed, and each organ thereof was extracted for the near-infrared fluorescence imaging using the eXplore Optix system (ART Inc, Montreal, Canada).

[4] = system: tumors of K-ras^LA2 transgenic mouse; test: Target transfer capability of FPI774-CRQTKN peptide (near-infrared organ imaging); type: in vivo; conditions: tail vein, 4 hours; for fluorescence of FPI774 in the lungs: FIG. 6A
Protocol: To confirm the binding capability of the CRQTKN peptide (SEQ ID NO: 4) to the K-ras tumors, the FPI774-CRQTKN (SEQ ID NO: 13) peptide, which is a peptide labeled with a near-infrared fluorescent reagent FPI774, and a control peptide were administered into a K-ras^LA2 transgenic mouse and a normal mouse via the tail vein of each mouse.
After 4 hours, the mice were scarified, and each organ thereof was extracted for the near-infrared fluorescence imaging using the eXplore Optix system (ART Inc, Montreal, Canada).

Substance: CKSRKDGAC (4R-3 peptide) [tumor-targeting peptide … identified by phage library screening; tested as phage clone and as FPI774-labeled peptide]
- binding capability of phage clone to the tumor (titer) [1]: greatest binding capability
- affinity of phage clones for the K-ras transgenic tumor cells [2]: high affinity

Substance: CMPKRPSSC (4R-16 peptide) [tumor-targeting peptide … identified by phage library screening]
- affinity of phage clones for the K-ras transgenic tumor cells [2]: high affinity

Substance: CRGTAEG (4R-21 peptide) [tumor-targeting peptide CRGTAEG identified by phage library screening]
- affinity of phage clones for the K-ras transgenic tumor cells [2]: high affinity

Substance: CRQTKN: tumor-targeting peptide CRQTKN identified by phage library screening (5R-7 peptide)
- transfer to the tumors (near-infrared fluorescence) [3]: most strongly transferred
- affinity of phage clones for the K-ras transgenic tumor cells [2]: high affinity

Substance: FPI774-CRQTKN: CRQTKN peptide labeled with a near-infrared fluorescent reagent FPI774
- fluorescence of FPI774 in the lungs ([4]; K-ras^LA2 transgenic mouse): strongly expressed
- fluorescence of FPI774 in the lungs ([4]; normal mouse): not expressed
- fluorescence of FPI774 in organs other than the lungs (kidney and liver) ([4]; FIG. 6B): not observed in general
